pIC50: −log10 of the molar value. Bounds are passed on as bounds.

The values that follow come from ChEMBL document CHEMBL5113487, “Novel anilinopyrimidine derivatives as potential EGFRT790M/C797S Inhibitors: Design, Synthesis, biological activity study” (Bioorg Med Chem, 2022).

Data set [1] concerns the target Epidermal growth factor receptor (Homo sapiens, UniProt P00533, C797S/EX18DEL/T790M). Kind of data set: Inhibition of EGFR del18/T790M/C797S triple mutant (unknown origin) using TK as substrate incubated for 120 mins in the presence of ATP by HTRF assay. (TR-FRET usually uses a lanthanide donor and a delayed reading to cut background.)
Data set [2] addresses Epidermal growth factor receptor (Homo sapiens, UniProt P00533, C797S/L858R/T790M). Kind of data set: Inhibition of EGFR L858R/T790M/C797S triple mutant (unknown origin) using TK as substrate incubated for 120 mins in the presence of ATP by HTRF assay.
In data set [3] the test system is BaF3. Kind of data set: Antiproliferative activity against mouse BaF3 cells harboring del18/T790M/C797S triple mutant assessed as cell growth inhibition incubated for 72 hrs by cell titre glo luminescence assay. Type of data set: functional, cell-based. As to conditions: BaF3, 72 h.
Data set [4] relates to A-431. The data set is described as follows: Antiproliferative activity against human A-431 cells assessed as cell growth inhibition incubated for 72 hrs by cell titre glo luminescence assay. Type of data set: functional, cell-based. As to conditions: A-431, 72 h.
For data set [5], the target named is Epidermal growth factor receptor (Homo sapiens, UniProt P00533). Kind of data set: Inhibition of wild type EGFR (unknown origin) using TK as substrate incubated for 120 mins in the presence of ATP by HTRF assay.
Data set [6] can be described thus: AUC(0 to t) in mouse at 5 mg/kg measured upto 24 hrs by LC-MS/MS analysis. The data set is classed as ADME, organism-based. Details: time < 24 hrs, dose 5 mg/kg. As to conditions: in vivo.
Data set [7] in a line: MRT in mouse at 5 mg/kg measured upto 24 hrs by LC-MS/MS analysis. As to conditions: in vivo. The data set is classed as ADME, organism-based.
Data set [8] can be described thus: AUC(0 to infinity) in mouse at 5 mg/kg measured upto 24 hrs by LC-MS/MS analysis. The data set is classed as ADME, organism-based. The arrangement: dose 5 mg/kg, time < 24 hrs. As to conditions: in vivo.
Data set [9] is described as follows: Half-life in mouse at 5 mg/kg measured upto 24 hrs by LC-MS/MS analysis. The data set is classed as ADME, organism-based. As to conditions: in vivo.
Data set [10] in a line: Cmax in mouse at 5 mg/kg measured upto 24 hrs by LC-MS/MS analysis. Type of data set: ADME, organism-based. The arrangement: time < 24 hrs, dose 5 mg/kg. As to conditions: in vivo.
Data set [11] concerns Epidermal growth factor receptor (Homo sapiens), P00533 [UNDEFINED MUTATION]. The data set is described as follows: Potency index, ratio of brigatinib IC50 to test compound IC50 for inhibition of EGFR del18/T790M/C797S triple mutant (unknown origin) using TK as substrate incubated for 120 mins in the presence of ATP by HTRF assay.
Data set [12] concerns Epidermal growth factor receptor (Homo sapiens), P00533 [L858R,T790M,C797S]. The data set is described as follows: Potency index, ratio of brigatinib IC50 to test compound IC50 for inhibition of EGFR L858R/T790M/C797S triple mutant (unknown origin) using TK as substrate incubated for 120 mins in the presence of ATP by HTRF assay.

As a reminder, the pIC50 is −log10 of the IC50, conventionally taken in molar units. For the compound `COc1cc(N2CCC(N3CCCN(C)CC3)CC2)c(C)cc1Nc1ncc(Br)c(Nc2ccc3c(c2P(C)(C)=O)OCCO3)n1`, the figures for the pIC50 in data set [1], in data set [2] and in [3] were 10.30, 10.00 and 7.62, respectively.
On to `CCOC1CN(C2CCN(c3cc(OC)c(Nc4ncc(Br)c(Nc5ccc6nccnc6c5P(C)(C)=O)n4)cc3C)CC2)C1`, for which the pIC50 in data set [4] was 6.37; in data set [5], 6.19; in data set [1], 9.19; in [2] it was 9.37; in data set [3] it was 7.54.
The AUC(0-t) is exposure summed from dosing to a finite time, without extrapolation to infinity. A low value points to less exposure. Usually MRT stands for a mean duration of stay, worked out from the concentration-time curve. Broadly, the AUC(0-inf) is total exposure, with the tail of the curve extrapolated. Low readings indicate low exposure, high ones high exposure. As usually defined, the half-life is how long it takes for the measured level to halve. Low readings indicate rapid decline, high ones slow decline. What is called Cmax is the highest concentration seen after dosing. With `CCO[C@@H]1CCN(C2CCN(c3cc(OC)c(Nc4ncc(Br)c(Nc5ccc6c(c5P(C)(C)=O)OCCO6)n4)cc3C)CC2)C1`, the pIC50 in data set [1] was 9.55; in data set [2], 9.39; in data set [3], 7.52. Also, in data set [6], the exposure AUC(0-t) at 24 h turned out to be 11100 ng·h/mL. The MRT in [7] worked out at 5.5 h. In [8], this compound came in with an AUC(0-inf) of 11200 ng·h/mL. The half-life in [9] is 3.5 h. In [10], this compound showed a Cmax of 1260 ng/mL.
Regarding `COc1cc(N2CCC(N3CC(N(C)C)C3)CC2)c(C)cc1Nc1ncc(Br)c(Nc2ccc3c(c2P(C)(C)=O)OCCO3)n1`, the pIC50 in data set [1] is 9.52; in data set [2] it was 9.66; in data set [3], 7.89. The compound also showed an AUC(0-t) at 24 h in data set [6] of 16400 ng·h/mL. The compound further gave an MRT in [7] of 6 h. Also, the AUC(0-inf) in data set [8] is 16500 ng·h/mL. Besides, the half-life in data set [9] was 5.6 h. In addition, in [10], the Cmax was 1680 ng/mL.
On to `CCc1cc(Nc2ncc(Br)c(Nc3ccc4ncnn4c3P(C)(C)=O)n2)c(OC)cc1N1CCC(N2CC(COC)C2)CC1`, for which the pIC50 is 6.15 in [4]; less than 6.30 in data set [5]; 10.00 in [1]; 9.08 in [2]; 7.43 in data set [3].
As to `COc1cc(N2CCC(N3CC[C@H](N(C)C)C3)CC2)c(C)cc1Nc1ncc(Br)c(Nc2ccc3c(c2P(C)(C)=O)OCCO3)n1`, the negative-log IC50 (pIC50) in [1] is 9.92; in data set [2], 9.82; in data set [3], 7.55.
With `COc1cc(N2CCC(N3CCCOCC3)CC2)c(C)cc1Nc1ncc(Br)c(Nc2ccc3c(c2P(C)(C)=O)OCCO3)n1`, the pIC50 in [1] was 9.89; in [2], 9.72; in data set [3], 7.70.
Consider `CCc1cc(Nc2ncc(Br)c(Nc3ccc4c(c3P(C)(C)=O)OCCO4)n2)c(OC)cc1N1CCC(N2CC(N(C)C)C2)CC1`, for which the negative-log IC50 (pIC50) in [1] is 10.10; in data set [2] it was 10.10; in data set [3], 8.10. In [6], the exposure AUC(0-t) at 24 h amounted to 21000 ng·h/mL. Moreover, the MRT in [7] turned out to be 6.3 h. The same compound showed an AUC(0-inf) in data set [8] of 21400 ng·h/mL. The compound also showed a half-life in data set [9] of 4 h. Further, the Cmax in [10] worked out at 2110 ng/mL.
`CCc1cc(Nc2ncc(Br)c(Nc3ccn4ncnc4c3P(C)(C)=O)n2)c(OC)cc1N1CCC(N2CCN(CC)CC2)CC1`: the pIC50 in data set [4] is 6.14; in [5], less than 6.30; in data set [1] it was 10.00; in data set [2], 9.17; in data set [3], 7.47.
Turning to `CCOC1CN(C2CCN(c3cc(OC)c(Nc4ncc(Br)c(Nc5ccc6c(c5P(C)(C)=O)OCCO6)n4)cc3C)CC2)C1`, in [6], the exposure AUC(0-t) at 24 h amounted to 25200 ng·h/mL. Besides, the MRT in data set [7] turned out to be 6.1 h. Moreover, the AUC(0-inf) in data set [8] amounted to 25300 ng·h/mL. For the same compound, the half-life in [9] was 3.2 h. Also, the concentration in data set [10] peaked (Cmax) at 2030 ng/mL. The pIC50 in data set [3] is 7.49.
Regarding `CCc1cc(Nc2ncc(Br)c(Nc3ccc4c(c3P(C)(C)=O)OCCO4)n2)c(OC)cc1N1CCC(N2CC(CC#N)C2)CC1`, the negative-log IC50 (pIC50) was 6.38 in data set [5], 9.31 in data set [1], 9.39 in data set [2] and 8.15 in data set [3].
For the compound `CCc1cc(Nc2ncc(Br)c(Nc3ccn4ncnc4c3P(C)(C)=O)n2)c(OC)cc1N1CCC(N2CCOCC2)CC1`, the pIC50 in [4] is 5.89; in data set [5] it was less than 6.30; in data set [1] it was 9.74; in [2] it was 9.03; in data set [3], 7.40.
Regarding `CCc1cc(Nc2ncc(Br)c(Nc3ccc4nccnc4c3P(C)(C)=O)n2)c(OC)cc1N1CCC(N2CC(N(C)C)C2)CC1`, the results for the negative logarithm of the IC50 (pIC50) in data set [1], in data set [2] and in data set [3] were 9.96, 10.10 and 7.80, respectively. In addition, the Ratio IC50 came out at 7 in [11] and 40 in data set [12].
Regarding `CCc1cc(Nc2ncc(Br)c(Nc3ccc4c(c3P(C)(C)=O)OCO4)n2)c(OC)cc1N1CCC(N2CC(N(C)C)C2)CC1`, the figures for the pIC50 in [1], in data set [2] and in data set [3] were 9.40, 9.82 and 7.85, respectively. Moreover, the AUC(0-t) at 24 h in data set [6] stood at 12300 ng·h/mL. In addition, the MRT in data set [7] worked out at 6 h. The compound also yielded an AUC(0-inf) in [8] of 12500 ng·h/mL. For the same compound, the half-life in data set [9] was 4.2 h. The compound also yielded a Cmax in data set [10] of 1470 ng/mL.
For the compound `CCN(C)C1CN(C2CCN(c3cc(OC)c(Nc4ncc(Br)c(Nc5ccc6c(c5P(C)(C)=O)OCCO6)n4)cc3C)CC2)C1`, the pIC50 was less than 6.30 in data set [5], 9.55 in data set [2] and 7.46 in [3].
With `COc1cc(N2CCC(N3CC(N(C)C)C3)CC2)c(C)cc1Nc1ncc(Br)c(Nc2ccc3nccnc3c2P(C)(C)=O)n1`, the pIC50 was 10.22 in data set [1], 10.05 in data set [2] and 7.89 in data set [3].
In the case of `CCc1cc(Nc2ncc(Br)c(Nc3ccc4nccnc4c3P(C)(C)=O)n2)c(OC)cc1N1CCC(N2CCCN(C)CC2)CC1`, the pIC50 in data set [4] is 6.31; in data set [5], 5.52; in [1], 9.08; in data set [2], 9.57; in data set [3], 8.05.
Consider `CCOC1CN(C2CCN(c3cc(OC)c(Nc4ncc(Br)c(Nc5ccc6ncnn6c5P(C)(C)=O)n4)cc3CC)CC2)C1`, for which the pIC50 in data set [4] was 5.99; in [5], less than 6.30; in data set [1] it was 9.05; in data set [2], 9.17; in data set [3] it was 7.36.
Take `CCc1cc(Nc2ncc(Br)c(Nc3ccc4c(c3P(C)(C)=O)OCCO4)n2)c(OC)cc1N1CCC(N2CC(COC)C2)CC1`: the negative-log IC50 (pIC50) in data set [1] was 9.82; in [2], 9.92; in [3] it was 7.92.
